Data set [1] has as its system H4 neuroglioma cells stably transfected with APP (H4 β695wt). Nature of the data set: Cell-based Aβ secretion assay (sandwich ELISA) in H4 cells. Conditions: Homo sapiens. An excerpt: This example describes an illustrative set of cell-based assays for testing the ability of the compounds of the present invention to inhibit the secretion of the Aβ peptide from cells expressing high levels of the human amyloid precursor protein (“APP”).
A representative set of such cells include A-204 rhabdomyosarcoma cells, human embryonic kidney 293 cells transiently transfected with APP, Chinese hamster ovary cells stably transfected with APP (CHO2B7), and H4 neuroglioma cells stably transfected with APP (H4 β695wt). The A-204 cells and HEK 293 cells were obtained from ATCC. For HEK 293 transient transfections, a pcDNA3 plasmid containing the human APP gene was obtained from Invitrogen, and cells were transfected with FuGENE 6 transfection reagent (Roche) following manufacturer's protocols. The CHO2B7 and H4 β695 wt lines were obtained from Mayo Clinic (J. Neuroscience Methods 108(2): 171–9 (2001)). […]
In the assay, cells were pre-treated with compounds for 1–2 hours to “wash out” any Aβ in the secretory pathway prior to incubation with compounds for the conditioning period required to generate detectable concentrations of Aβ. The production of secreted Aβ in cultured cells was monitored by sandwich ELISA, using the anti-Aβ monoclonal antibodies 6E10 and 4G8 (Signet Laboratories). […]

Another data set has as its target Cat D (Homo sapiens, UniProt P07339). Nature of the data set: Cat D Ki determination (DABCYL/EDANS substrate). The class given is biochemical. Here is the method: The Ki determination for Cat D was performed using the assay conditions derived from Haque et al., J. Med. Chem. 42: 1428–1440 (1999) and the following substrate: DABCYL-GLu-Arg-Nle-Phe-Leu-Ser-Phe-Pro-EDANS where Nle is norleucine and DABCYL and EDANS are as previously defined.

A short description of data set [2]: Metabolic stability in human liver microsomes. It is filed as in vitro ADME. Conditions: pH 7.4. As for the experimental part:
Metabolic stability was determined by incubating the compounds with human liver microsomes (100 μg/ml) in 100 mM Tris buffer pH 7.4 for 5 minutes at 37° C. Metabolic reactions were started by addition of NADPH to give a final concentration of […]. Reactions were stopped after 30 and 60 minutes by addition of acetonitrile. Protein was precipitated by centrifugation (3000 rpm×10 min) then supernatants were analyzed for remaining parent compound by LC/MS/MS.

Data set [3] in a line: Plasma stability in human plasma. To be noted: 37° C. The class given is in vitro ADME. As for the experimental part:
Plasma stability was determined by incubating the compounds in human plasma at a concentration of 1 μM at 37° C. for 0, 30 and 60 minutes. Reactions were stopped by addition of acetonitrile. Protein was precipitated by centrifugation (3000 rpm×10 min) then supernatants were analyzed for remaining parent compound by LC/MS/MS.

Structures are written as SMILES.

Sequence of Cat D (P07339 65-412): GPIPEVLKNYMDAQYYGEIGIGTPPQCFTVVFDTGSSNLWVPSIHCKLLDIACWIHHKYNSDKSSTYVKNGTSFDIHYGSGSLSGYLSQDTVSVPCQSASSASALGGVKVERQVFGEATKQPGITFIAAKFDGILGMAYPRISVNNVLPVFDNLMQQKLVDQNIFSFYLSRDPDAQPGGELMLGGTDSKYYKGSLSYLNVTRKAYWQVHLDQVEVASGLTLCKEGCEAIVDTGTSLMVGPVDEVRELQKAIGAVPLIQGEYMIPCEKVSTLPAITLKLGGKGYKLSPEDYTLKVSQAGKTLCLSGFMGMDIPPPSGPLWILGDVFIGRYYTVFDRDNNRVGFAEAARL

`CCCN(CCC)C(=O)c1cccc(C(=O)N[C@@H](CC(C)C)[C@@H](N)C[C@@H](C)C(=O)N[C@H](C(=O)NCc2ccccc2)C(C)C)c1` [R = NH2] yielded an IC50 in data set [1] of 740 nM. At Cat D, this compound came in with a Ki of 610 nM. Further, at Cat D (Cat D Ki versus BACE Ki), the “preference for BACE over Cat D” value is “over a three fold preference for BACE over Cat D”. Also, in data set [2], the recovery at 60 min turned out to be 43%. Besides, the recovery at 1 h, 1 μM in data set [3] was 100%.
For `CCCN(CCC)C(=O)c1cccc(C(=O)N[C@@H](CC(C)C)[C@@H](O)C[C@@H](C)C(=O)N[C@H](C(=O)NCc2ccccc2)C(C)C)c1` [R = OH], the midpoint of inhibition in data set [1], the IC50, lay at 2000 nM. Affinity at Cat D was put at a Ki of 20 nM. Also, the “preference for Cat D over BACE” value on Cat D (BACE Ki versus Cat D Ki) was 7.5 fold. In data set [2], the recovery at 60 min is 0%. The recovery at 1 h, 1 μM in data set [3] was 100%.

(Values after US7132568B2, “Aspartyl protease inhibitors” (Sunesis Pharmaceuticals, Inc., priority 2002, dated 2006).)
